Experimental data from patent US20240116985A1, “STAPLED PEPTIDES AND METHODS THEREOF” (priority 2020, published 2024).
Values after ≈ are worked out from the molar mass of the structure shown. Where two headings read alike, the source gives them in different places.

What was measured:
Solubility in PBS = assay type: physicochemical
How it was run: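 Steps: ultracentrifuge the peptide PBS solution, inject the supernatant on HPLC, inject a 50 μM peptide DMSO solution as reference, then calculate solubility as area ratio (PBS/DMSO) × 50 uM.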

[1] = biological target: T1, full-length beta-Catenin (Uniprot ID P35222) (Homo sapiens, UniProt P35222); test: Fluorescence polarization IC50 (beta-catenin / 5FAM-TCF4 10-53 competition); assay type: binding
T1 construct: 10 nM full-length beta-Catenin (Uniprot ID P35222)
T1 sequence (P35222 1-781): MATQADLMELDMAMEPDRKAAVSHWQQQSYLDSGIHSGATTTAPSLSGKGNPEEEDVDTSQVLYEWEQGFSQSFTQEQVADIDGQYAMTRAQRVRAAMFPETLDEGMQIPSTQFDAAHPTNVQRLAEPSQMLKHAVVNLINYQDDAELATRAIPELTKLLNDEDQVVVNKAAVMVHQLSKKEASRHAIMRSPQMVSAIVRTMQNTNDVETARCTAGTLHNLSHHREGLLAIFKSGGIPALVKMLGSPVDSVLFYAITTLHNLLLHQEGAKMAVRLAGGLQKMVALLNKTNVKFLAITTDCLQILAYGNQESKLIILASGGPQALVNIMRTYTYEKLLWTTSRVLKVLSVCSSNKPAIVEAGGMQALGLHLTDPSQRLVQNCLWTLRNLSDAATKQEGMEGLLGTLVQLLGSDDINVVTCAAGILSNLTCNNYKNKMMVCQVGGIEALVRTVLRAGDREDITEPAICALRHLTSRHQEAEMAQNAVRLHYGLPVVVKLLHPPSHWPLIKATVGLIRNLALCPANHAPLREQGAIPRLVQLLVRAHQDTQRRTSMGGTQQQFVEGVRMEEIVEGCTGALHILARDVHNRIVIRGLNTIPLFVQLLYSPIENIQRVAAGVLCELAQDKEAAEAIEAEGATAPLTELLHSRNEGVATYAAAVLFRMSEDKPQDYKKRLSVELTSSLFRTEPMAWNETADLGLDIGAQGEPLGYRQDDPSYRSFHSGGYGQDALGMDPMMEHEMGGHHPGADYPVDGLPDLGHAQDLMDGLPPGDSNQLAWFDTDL

CHI Log D procedure = assay type: physicochemical
[2] = fluorescence polarization, beta-catenin, read-out: FP EC50
[3] = fluorescence polarization, read-out: beta-Catenin FP IC50
[4] = Table E2-1, read-out: beta-Catenin FP IC50

chromatographic logD (CHI Log D procedure; pH 7.4, CHI Log D) | Solubility (Solubility in PBS) [µM] | CHI Log D (CHI Log D procedure; pH 7.4) | IC50 [1, 3] [nM] | IC50 ([1]; read-out: FP EC50) [nM] | Structure (SMILES) | further results
2.12 | – | – | – | – | CC(=O)N1CCC[C@]12CC=CCCCC1(CCCC=CCCCOC(=O)N3CC[C@@](C(=O)N[C@@H](Cc4cccs4)C(=O)N[C@@H](Cc4csc5ccccc45)C(=O)N[C@@H](Cc4c[nH]cn4)C(N)=O)(C3)NC(=O)[C@H](CC(N)=O)NC(=O)[C@H](Cc3ccccc3)NC(=O)[C@H](C)NC(=O)[C@H](C)NC(=O)[C@H](CC(=O)O)NC(=O)[C@H](CC(=O)O)NC1=O)NC(=O)[C@H](CC(C)(C)C)NC(=O)[C@H](CC(=O)O)NC2=O (stereo partly drawn) [I-779, Ac-PL3-Asp-Npg-B5-Asp-Asp-Ala-Ala-Phe-Asn-PyrS2-2Thi-BztA-His-NH2] | Solubility (Solubility in PBS; Solubility (uM)): 44 µM (≈ 84.8 µg/mL); IC50 ([1]; read-out: beta-Catenin FP IC50): 5 nM
– | 49 (≈ 98.1 µg/mL) | 2.071 | – | – | CC(=O)N1CCC[C@]12CC=CCCCC1(CCCC=CCCCOC(=O)N3CC[C@@](C(=O)N[C@@H](Cc4ccsc4)C(=O)N[C@@H](Cc4csc5ccccc45)C(=O)N[C@H](C(N)=O)[C@@H](C)O)(C3)NC(=O)[C@H](CC(N)=O)NC(=O)[C@H](Cc3ccccc3)NC(=O)[C@H](C)NC(=O)[C@H](C)NC(=O)[C@H](CN(CC(=O)O)CC(F)(F)F)NC(=O)[C@H](CC(=O)O)NC1=O)NC(=O)[C@H](CC(C)(C)C)NC(=O)[C@H](CC(=O)O)NC2=O (stereo partly drawn) [I-943, Ac-PL3-Asp-Npg-B5-Asp-TfeGA-Ala-Ala-Phe-Asn-PyrS2-3Thi-BztA-Thr-NH2] | IC50 [1, 2]: 1990 nM; IC50 ([1]; read-out: beta-Catenin FP IC50): 1990 nM
– | 48 (≈ 92.4 µg/mL) | 2.903 | 430 | 430 | CC[C@H](C)[C@@H]1NC(=O)[C@H](CC(=O)O)NC(=O)[C@]2(CC=CCCCC3(CCCC=CCCCCCC[C@@](C)(C(=O)N[C@@H](Cc4ccccc4)C(=O)N[C@@H](Cc4csc5ccccc45)C(=O)N[C@@H](CCC(N)=O)C(N)=O)NC(=O)[C@H](CCC(N)=O)NC(=O)[C@H](Cc4ccccc4)NC(=O)[C@H](CC(C)C)NC(=O)[C@H](C)NC(=O)[C@H](CCC(=O)O)NC(=O)[C@H](CC(=O)O)NC3=O)NC1=O)CCCN2C(C)=O (stereo partly drawn) [I-659, Ac-PL3-Asp-Ile-B5-Asp-Glu-Ala-Leu-Phe-Gln-S8-Phe-BztA-Gln-NH2] | –
1.64 | – | – | – | – | CC(=O)N1CCC[C@]12CC=CCCCC1(CCCC=CCCCOC(=O)N3CC[C@@](C(=O)N[C@@H](Cc4ccccc4Cl)C(=O)N[C@@H](Cc4csc5ccccc45)C(=O)N[C@@H](CCC(N)=O)C(N)=O)(C3)NC(=O)[C@H](CC(C)C)NC(=O)[C@H](Cc3ccccc3)NC(=O)[C@H](C)NC(=O)[C@H](C)NC(=O)[C@H](CCC(=O)O)NC(=O)[C@H](CC(=O)O)NC1=O)NC(=O)[C@H](CC(C)(C)C)NC(=O)[C@H](CC(=O)O)NC2=O (stereo partly drawn) [I-1063, Ac-PL3-Asp-Npg-B5-Asp-Glu-Ala-Ala-Phe-Leu-PyrS2-2C1F-BztA-Gln-NH2] | Solubility (Solubility in PBS; Solubility (uM)): 43 µM (≈ 84.3 µg/mL); IC50 ([1]; read-out: beta-Catenin FP IC50): 471 nM

More lines, now with the values behind:

Structure (SMILES) | chromatographic logD (CHI Log D procedure; pH 7.4, CHI Log D) | Solubility (Solubility in PBS) [µM] | CHI Log D (CHI Log D procedure; pH 7.4) | IC50 [1, 3] [nM] | IC50 ([1]; read-out: FP EC50) [nM] | further results
CC[C@H](C)[C@@H]1NC(=O)[C@H](CC(=O)O)NC(=O)[C@]2(CC=CCCCC3(CCCC=CCCCCCC[C@@](C)(C(=O)N[C@@H](Cc4ccccc4)C(=O)N[C@@H](Cc4csc5ccccc45)C(=O)N[C@H](C(N)=O)[C@@H](C)O)NC(=O)[C@H](CCC(N)=O)NC(=O)[C@H](Cc4ccccc4)NC(=O)[C@H](C)NC(=O)[C@H](C)NC(=O)[C@H](CCC(=O)O)NC(=O)[C@H](CC(=O)O)NC3=O)NC1=O)CCCN2C(C)=O (stereo partly drawn) [I-642, Ac-PL3-Asp-Ile-B5-Asp-Glu-Ala-Ala-Phe-Gln-S8-Phe-BztA-Thr-NH2] | – | 48 (≈ 89.1 µg/mL) | 2.512 | 118 | 118 | –
CC(=O)N1CCC[C@]12CC=CCCCC1(CCCC=CCCCCCC[C@@](C)(C(=O)N[C@@H](Cc3ccccc3)C(=O)N[C@@H](Cc3c[nH]c4ccccc34)C(=O)N[C@@H](CCC(N)=O)C(N)=O)NC(=O)[C@H](C(C)C)NC(=O)[C@H](Cc3ccccc3)NC(=O)[C@H](C)NC(=O)[C@H](C)NC(=O)[C@H](C)NC(=O)[C@H](CC(=O)O)NC1=O)NC(=O)[C@H](C)NC(=O)[C@H](CC(=O)O)NC2=O (stereo partly drawn) [I-352, Ac-PL3-Asp-Ala-B5-Asp-Ala-Ala-Ala-Phe-Val-S8-Phe-Trp-Gln-NH2] | – | 10 (≈ 17.4 µg/mL) | – | – | – | IC50 ([1]; beta-Catenin FP IC50 (nM), Table E2-1): 5000 nM; chromatographic logD (CHI Log D procedure; pH 7.4): 2.51
CCCC[C@@H]1NC(=O)[C@H](CC(=O)O)NC(=O)[C@]2(CC=CCCCC3(CCCC=CCCCCCC[C@@](C)(C(=O)N[C@@H](Cc4ccccc4)C(=O)N[C@@H](Cc4csc5ccccc45)C(=O)N[C@@H](CCC(N)=O)C(N)=O)NC(=O)[C@H](C)NC(=O)[C@H](Cc4ccccc4)NC(=O)[C@H](C)NC(=O)[C@H](C)NC(=O)[C@H](CCC(=O)O)NC(=O)[C@H](CC(=O)O)NC3=O)NC1=O)CCCN2C(C)=O (stereo partly drawn) [I-411, Ac-PL3-Asp-nLeu-B5-Asp-Glu-Ala-Ala-Phe-Ala-S8-Phe-BztA-Gln-NH2] | 2.57 | 50 (≈ 91.3 µg/mL) | – | 189 | – | –
CC(=O)N1CCC[C@]12CC=CCCCC1(CCCC=CCCCCCC[C@@](C)(C(=O)N[C@@H](Cc3ccsc3)C(=O)N[C@@H](Cc3csc4ccccc34)C(=O)N[C@@H](Cc3c[nH]cn3)C(N)=O)NC(=O)[C@H](CC(N)=O)NC(=O)[C@H](Cc3ccccc3)NC(=O)[C@H](C)NC(=O)[C@H](C)NC(=O)[C@H](CCC(=O)O)NC(=O)[C@H](CC(=O)O)NC1=O)NC(=O)[C@H](C)NC(=O)[C@H](CC(=O)O)NC2=O (stereo partly drawn) [I-516, Ac-PL3-Asp-Ala-B5-Asp-Glu-Ala-Ala-Phe-Asn-S8-3Thi-BztA-His-NH2] | – | 42 (≈ 77.4 µg/mL) | 2.072 | 23 | 23 | –
CC(=O)N1CCC[C@]12CC=CCCCC1(CCCC=CCCCOC(=O)N3CC[C@@](C(=O)N[C@@H](Cc4ccsc4)C(=O)N[C@@H](Cc4csc5ccccc45)C(=O)N[C@@H](CCC(N)=O)C(N)=O)(C3)NC(=O)[C@H](CC(N)=O)NC(=O)[C@H](Cc3ccccc3)NC(=O)[C@H](C)NC(=O)[C@H](CCCCNC(=O)CN=[N+]=[N-])NC(=O)[C@H](CC(=O)O)NC(=O)[C@H](CC(=O)O)NC1=O)NC(=O)[C@H](CC(C)(C)C)NC(=O)[C@H](CC(=O)O)NC2=O (stereo partly drawn) [I-879, Ac-PL3-Asp-Npg-B5-Asp-Asp-[AzAc]Lys-Ala-Phe-Asn-PyrS2-3Thi-BztA-Gln-NH2] | – | 45 (≈ 92.6 µg/mL) | – | – | – | IC50 ([1]; FP EC50 (nM), fluorescence polarization, beta-catenin): 6 nM; chromatographic logD (CHI Log D procedure; pH 7.4): 2
CC(=O)N1CCC[C@]12CC=CCCCC1(CCCC=CCCCCCC[C@@](C)(C(=O)N[C@@H](Cc3ccccc3)C(=O)N[C@@H](Cc3csc4ccccc34)C(=O)N[C@@H](CCC(N)=O)C(N)=O)NC(=O)[C@H](CCC(N)=O)NC(=O)[C@H](Cc3cccc(C(F)(F)F)c3)NC(=O)[C@H](C)NC(=O)[C@H](C)NC(=O)[C@H](CC(=O)O)NC(=O)[C@H](CC(=O)O)NC1=O)NC(=O)[C@H](C)NC(=O)[C@H](CC(=O)O)NC2=O (stereo partly drawn) [I-378, Ac-PL3-Asp-Ala-B5-Asp-Asp-Ala-Ala-3F3MeF-Gln-S8-Phe-BztA-Gln-NH2] | – | 50 (≈ 94.8 µg/mL) | 2.143 | – | – | IC50 [1, 4]: 1340 nM; IC50 [1, 2]: 1340 nM
CC(=O)N1CCC[C@]12CC=CCCCC1(CCCC=CCCCCC[C@@](C)(C(=O)N[C@@H](Cc3ccccc3)C(=O)N[C@@H](Cc3c[nH]c4ccccc34)C(=O)N[C@@H](CCC(N)=O)C(N)=O)NC(=O)[C@H](C(C)C)NC(=O)[C@H](Cc3ccccc3)NC(=O)[C@H](C)NC(=O)[C@H](C)NC(=O)[C@H](CCC(=O)O)NC(=O)[C@H](CC(=O)O)NC1=O)NC(=O)[C@H](C)NC(=O)[C@H](CC(=O)O)NC2=O (stereo partly drawn) [I-132, Ac-PL3-Asp-Ala-B5-Asp-Glu-Ala-Ala-Phe-Val-S7-Phe-Trp-Gln-NH2] | 1.69 | – | – | – | – | Solubility (Solubility in PBS; Solubility (uM)): 49 µM (≈ 87.3 µg/mL); IC50 [1, 4]: 5000 nM
CC(=O)N1CCC[C@]12CC=CCCCC1(CCCC=CCCCCCC[C@@](C)(C(=O)N[C@@H](Cc3ccccc3)C(=O)N[C@@H](Cc3csc4ccccc34)C(=O)N[C@@H](CCC(N)=O)C(N)=O)NC(=O)[C@H](C(C)C)NC(=O)[C@H](Cc3ccccc3)NC(=O)[C@H](C)NC(=O)[C@H](C)NC(=O)[C@H](CC(=O)O)NC(=O)[C@H](CC(=O)NC3CCC3)NC1=O)NC(=O)[C@H](C)NC(=O)[C@H](CC(=O)O)NC2=O (stereo partly drawn) [I-539, Ac-PL3-Asp-Ala-B5-[NHCyBu]AsnR-Asp-Ala-Ala-Phe-Val-S8-Phe-BztA-Gln-NH2] | 2.94 | 10 (≈ 18.5 µg/mL) | – | 5000 | – | –
CO[C@H](C)[C@@H]1NC(=O)[C@H](CC(=O)O)NC(=O)[C@]2(CC=CCCCC3(CCCC=CCCCCCC[C@@](C)(C(=O)N[C@@H](Cc4ccccc4)C(=O)N[C@@H](Cc4csc5ccccc45)C(=O)N[C@@H](CCC(N)=O)C(N)=O)NC(=O)[C@H](CCC(N)=O)NC(=O)[C@H](Cc4ccccc4)NC(=O)[C@H](C)NC(=O)[C@H](C)NC(=O)[C@H](CCC(=O)O)NC(=O)[C@H](CC(=O)O)NC3=O)NC1=O)CCCN2C(C)=O (stereo partly drawn) [I-542, Ac-PL3-Asp-TOMe-B5-Asp-Glu-Ala-Ala-Phe-Gln-S8-Phe-BztA-Gln-NH2] | – | 39 (≈ 73.5 µg/mL) | 2.135 | 109 | 109 | –
